Article PMC11781366 (Immunity, 2023)

Legend:
[1] = system: D. serrata STING; assay: microscale thermophoresis in lysates of transfected S2 cells; type: biochemical, Drosophila serrata
[2] = molecular target: T1, D. melanogaster STING (dSTING) (Drosophila melanogaster, UniProt A0A0B4LFY9); assay: as above; type: biochemical
T1 sequence (A0A0B4LFY9 1-343): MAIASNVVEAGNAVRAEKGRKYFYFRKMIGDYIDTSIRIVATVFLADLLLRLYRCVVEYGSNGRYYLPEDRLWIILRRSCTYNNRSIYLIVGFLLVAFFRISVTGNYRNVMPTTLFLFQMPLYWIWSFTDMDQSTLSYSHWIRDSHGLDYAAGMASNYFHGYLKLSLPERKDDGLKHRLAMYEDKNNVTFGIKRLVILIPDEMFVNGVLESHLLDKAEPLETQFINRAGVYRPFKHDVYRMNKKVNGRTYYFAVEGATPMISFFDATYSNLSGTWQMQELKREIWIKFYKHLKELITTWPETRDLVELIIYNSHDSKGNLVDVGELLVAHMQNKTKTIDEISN

Which Kd [1] does the source give for `Nc1nc2c(ncn2[C@@H]2O[C@@H]3COP(=O)(O)O[C@@H]4[C@H](O)[C@@H](COP(=O)(O)O[C@H]3[C@H]2O)O[C@H]4n2cnc3c(=O)[nH]c(N)nc32)c(=O)[nH]1` [2′3′-c-di-GMP] here?
Its Kd is 36.7 µM.

What about the Kd [2] of the same compound?
The Kd was 28.2 µM.
